Here are results for 16 molecules from patent EP1228058B1, “BENZOPYRANYL GUANIDINE DERIVATIVES, PROCESS FOR PREPARATION THEREOF, AND PHARMACEUTICAL COMPOSITIONS CONTAINING THEM” (Dongbu Hannong Chemical Co., Ltd., priority 1999, dated 2001).

Broadly, the IC50 is the concentration that inhibits the measured activity by half.

The test system of one data set is rat aorta. Briefly: Vasodilation effects on isolated blood vessels of rats (methoxamine-constricted aortic rings). The data set is classed as cell-based. Conditions: isolated rat aorta constricted with methoxamine (3 uM); read-out: Vasodilation Activity (in Vitro, rat aorta) (IC50). The text has this:
Male Sprague-Dawly rats (350-450 g, obtained from the Experimental Animal Team of the Korea Research Institute of Chemical Technology) were knocked unconscious by hitting the occipital region, sacrificed by cervical dislocation, and underwent thoracotomy. After being quickly removed, the thoracic aorta was deprived of the adipose tissue and cut into aortic rings of 3 mm width. The aorta was lightly rubbed with a modified Krebs Henseleit buffer (Physiological Salt Solution, PSS) soaked cotton club to remove the inner epithelial layer therefrom. While being suspended in an organ bath containing a physiological buffer, the vascular tissue was allowed to equilibrate under a resting tension of 2 g and then, stand for 1 hour at 37 °C for stabilization with a supply of a carbogen consisting of 95% O2-5% CO2.
Thereafter, the vascular tissue was constricted with 10^-5 M phenylephrine and washed several times with PSS and this procedure was repeated again to ensure the stable reacivity of vascular smooth muscle to repetitive constriction/dilatation.
In addition, 3x10^-6 M methoxamine was used to induce an intensive constriction in the vascular smooth muscle. When the vasoconstriction induced by the methoxamine reached and maintained a maximum, test compounds and controls were cumulatively added to the organ baths in concentrations of 1, 3, 10 and 30 uM so as to induce vasodilatation. As for the controls, they were Cromakalim and BMS-180448 (the compounds of the chemical formula 2), both known to be the first generation KATP activator with potent vasodilatation and cardioprotection effects.
Following the addition of the drugs, the change in the maximal constriction induced by methoxamine was calculated to plot a concentration-dilation response curve. Through a linear regression analysis, IC50, the drug concentration at which the vascular tissue is 50% dilated, was obtained for each drug.

A short description of data set [1]: Acute oral toxicity test in rats. The settings on record: rat, in vivo, single oral dose in 0.5% methyl cellulose, read-out: lethal dose (LD50) for oral administration. How it is done: In this test six-week old SPF SD rats were used with two rats assigned to each group. The compounds of examples 1, 2, 3, 5, 7, 8, 9, 10, 13, 14, 15, 19, 22, 23, 24, 25, 26, 28, 29, 30, 31, 32, 33, 34, 35, 36, 37, 38, 39, 40, 41, 44, 46, 47, 48, 49, 51, 52, 57, 58, 60, 62, 64, 67, 68, 69, 71 and 72 were suspended in 0.5% methyl cellulose, respectively, and administered orally at a single dose of 1 g/kg using a ball-tipped needle. The dosing volume was 10 ml/kg. […] All survivors at the end of the observation period underwent laparotomy under ether anesthesia and the blood samples were taken from the abdominal aorta for hematological tests and biochemical analysis. After sacrificing the animals, autopsy was performed for macroscopic observation of the organs and tissues. Tissue samples of vital organs from macroscopic legion were removed and fixed in 10% neutral buffered formalin solution, then processed by standard procedures for histopathology and examined under light microscope. There were no significant changes in clinical symptoms, body weight and mortalities. Also in hematology, serum chemistry parameters and macroscopic observation, no drug-related changes were observed.

In the next data set the test system is HUVEC. Briefly: Inhibition of HUVEC tube formation on Matrigel. The format is cell-based, Human. Set-up: key: -: no effect; +/-: week effect; +: moderate effect; ++: strong effect. Here is the method:
HUVEC (Human umbilical vein endothelial cells, ATCC CRL-1730) were cultured, and tubulogenesis was induced in vascular endothelial cells by plating them onto the surface of Matrigel for several hours. The effects on tube formation of the test compounds were compared with the vehicle treated controls, then confirmed their in vitro anti-angiogenic effect indirectly.

For the molecule `CC1(C)Oc2ccc(C#N)cc2C(N2CCCC2=O)C1O` (stereo not drawn) [Cromakalim, reference compound], the IC50 in the data set on rat aorta came out at 0.067 µM.
On to `COC(OC)[C@]1(C)Oc2ccc([N+](=O)[O-])cc2[C@@H](NC(=NC#N)Nc2ccc(Cl)cc2)[C@@H]1O` [Example 2, (2R, 3S, 4R)-N''-cyano-N-(6-nitro-3,4-dihydro-3-hydroxy-2-methyl-2-dimethoxymethyl-2H-benzopyran-4-yl)-N'-(4-chlorophenyl)guanidine], for which the LD50 in data set [1] was above 1000 mg/kg. The “Inhibitory Effects on Tube Formation” value with HUVEC (10 uM) is listed as “+”; in the data set on HUVEC (100 uM), “++”.
On the same counts, the results for `COC(OC)[C@@]1(C)Oc2ccc([N+](=O)[O-])cc2[C@H](NC(=NC#N)Nc2ccc(Cl)cc2)[C@H]1O` [Example 10, (2S, 3R, 4S)-N''-cyano-N-(6-nitro-3,4-dihydro-3-hydroxy-2-methyl-2-dimethoxymethyl-2H-benzopyran-4-yl)-N'-(4-chlorophenyl)guanidine] are above 1000 mg/kg, “+” and “++”.
Regarding `COC(OC)[C@@]1(C)Oc2ccc([N+](=O)[O-])cc2[C@@H](NC(=NC#N)Nc2cccc(C(F)(F)F)c2)[C@@H]1O` [Example 15, (2S, 3S, 4R)-N''-cyano-N-(6-nitro-3,4-dihydro-3-hydroxy-2-methyl-2-dimethoxymethyl-2H-benzopyran-4-yl)-N'-(3-trifluoromethylphenyl)guanidine], the LD50 in data set [1] is above 1000 mg/kg. Moreover, the half-inhibitory concentration (IC50) in the data set with rat aorta was 14.1 µM.
For the molecule `COc1ccc(NC(=NC#N)N[C@H]2c3cc([N+](=O)[O-])ccc3O[C@](C)(C(OC)OC)[C@@H]2O)cc1` [Example 16, (2S, 3R, 4S)-N''-cyano-N-(6-nitro-3,4-dihydro-3-hydroxy-2-methyl-2-dimethoxymethyl-2H-benzopyran-9-yl)-N'-(4-methoxyphenyl) guanidine], the “Inhibitory Effects on Tube Formation” value in the data set with HUVEC (10 uM) and in the data set with HUVEC (100 uM) was “+/-” in each case.
With `COC(OC)[C@@]1(C)Oc2ccc([N+](=O)[O-])cc2[C@@H](NC(=NC#N)NCc2cccc([N+](=O)[O-])c2)[C@@H]1O` [Example 52, (2S, 3S, 4R)-N''-cyano-N-(6-nitro-3,4-dihydro-3-hydroxy-2-methyl-2-dimethoxymethyl-2H-benzopyran-4-yl)-N'-(3-nitrobenzyl)guanidine], the LD50 in data set [1] was above 1000 mg/kg. In addition, the figures for the “Inhibitory Effects on Tube Formation” value in the data set with HUVEC (10 uM) and in the data set on HUVEC (100 uM) were “+/-” and “++”, respectively.
Regarding `COC(OC)[C@@]1(C)Oc2ccc(N)cc2[C@H](/N=C(\NC#N)NCc2ccccc2)[C@H]1O` [Example 57, (2S, 3R, 4S)-N''-cyano-N-(6-amino-3,4-dihydro-3-hydroxy-2-methyl-2-dimethoxymethyl-2H-benzopyran-4-yl)-N'-benzylguanidine], the LD50 in data set [1] is above 1000 mg/kg.
As to `COC(OC)[C@]1(C)Oc2ccc(N)cc2[C@H](NC(=NC#N)NCc2ccccc2)[C@H]1O` [Example 58, (2R, 3R, 4S)-N''-cyano-N-(6-amino-3,4-dihydro-3-hydroxy-2-methyl-2-dimethoxymethyl-2H-benzopyran-4-yl)-N'-benzylguanidine], the LD50 in data set [1] was above 1000 mg/kg.
On the same count and under the same terms, with `C[C@]1(C2OCCO2)Oc2ccc([N+](=O)[O-])cc2[C@@H](NC(=NC#N)NCc2ccccc2)[C@@H]1O` [Example 60, (2S, 3S, 4R)-N''-cyano-N-(6-nitro-3,4-dihydro-3-hydroxy-2-methyl-2-([1,3]dioxolan-2-yl)-2H-benzopyran-4-yl)-N'-benzylguanidine] the figure was above 1000 mg/kg; with `C[C@]1(C2OCCCO2)Oc2ccc([N+](=O)[O-])cc2[C@@H](NC(=NC#N)NCc2ccccc2)[C@@H]1O` [Example 62, (2S, 3S, 4R) -N''-cyano-N-(6-nitro-3,4-dihydro-3-hydroxy-2-methyl-2-([1,3]dioxan-2-yl)-2H-benzopyran-4-yl)-N'-benzylguanidine], above 1000 mg/kg; with `CC1(C)COC([C@@]2(C)Oc3ccc([N+](=O)[O-])cc3[C@@H](NC(=NC#N)NCc3ccccc3)[C@@H]2O)OC1` [Example 64, (2S, 3S, 4R)-N''-cyano-N-(6-nitro-3,9-dihydro-3-hydroxy-2-methyl-2-([1,3]-5,5-dimethyldioxan-2-yl)-2H-benzopyran-4-yl)-N'-benzyl guanidine], above 1000 mg/kg.
`CCOC(OCC)[C@@]1(C)Oc2ccc(N)cc2[C@@H](NC(=NC#N)NCc2ccccc2)[C@@H]1O` [Example 67, (2S, 3S, 4R)-N''-cyano-N-(6-amino-3,4-dihydro-3-hydroxy-2-methyl-2-diethoxymethyl-2H-benzopyran-4-yl)-N'-benzylguanidine]: in data set [1], the LD50 is above 1000 mg/kg.
On the same count and under the same terms, with `COC(=O)c1ccc2c(c1)[C@@H](NC(=NC#N)NCc1ccccc1)[C@H](O)[C@@](C)(C(OC)OC)O2` [Example 68, (2S, 3S, 4R)-N''-cyano-N-(6-methoxycarbonyl-3,4-dihydro-3-hydroxy-2-methyl-2-dimthoxymethyl-2H-benzopyran-4-yl)-N'-benzylguanidine] the figure was above 1000 mg/kg.
Still for that read-out and setting: then `COC(=O)c1ccc2c(c1)[C@@H](NC(=NC#N)NCc1ccccc1)[C@H](O)[C@](C)(C(OC)OC)O2` [Example 69, (2R, 3S, 4R)-N''-cyano-N (6-methoxycarbonyl-3,4-dihydro-3-hydroxy-2-methyl-2-dimthoxymethyl-2H-benzopyran-4-yl)-N'-benzylguanidine], with above 1000 mg/kg; and `COC(OC)[C@@]1(C)Oc2c(N)cccc2[C@@H](NC(=NC#N)NCc2ccccc2)[C@@H]1O` [Example 71, (2S, 3S, 4R)-N''-cyano-N-(8-amino-3,4-dihydro-3-hydroxy-2-methyl-2-dimthoxymethyl-2H-benzopyran-4-yl)-N'-benzylguanidine], with above 1000 mg/kg; and `COC(OC)[C@]1(C)Oc2c(N)cccc2[C@@H](NC(=NC#N)NCc2ccccc2)[C@@H]1O` [Example 72, (2R, 3S, 4R)-N''-cyano-N-(8-amino-3,4-dihydro-3-hydroxy-2-methyl-2-dimthoxymethyl-2H-benzopyran-4-yl)-N'-benzylguanidine], with above 1000 mg/kg.
